From US10001469B2, “Use of GPR83 to identify pruritus-related substances” (University of Miyazaki, priority 2010, dated 2018)
Entries after “also recorded” stand apart in the source; their conditions may differ. Non-standard residues stand in square brackets, D forms with d. No end group written: not given here.

Assays:
pain-related behavior = conditions: cited from earlier work; for suppression of pain-related behavior resulting from SP: Non-patent Documents 1, 2 and 3; for induction of pain-related behavior (e.g., scratching behavior): administered to a rat or a mouse, Non-patent Document 1
thermal hyperalgesia = conditions: intrathecal administration; Non-patent Documents 7, 9, 10, 11; cited from earlier work
[1] = test system: intrathecally catheterized rats; conditions: depending on the concentrations of peptides administered, Non-patent Document 7; cited from earlier work
[2] = test system: formalin-induced inflammatory pain; experiment: Formalin-induced pain behavior (flinching) after intraplantar formalin; format: in vivo, rat; conditions: 10^−2 M (100 nmol/10 μl) peptide intrathecal 5 minutes before 2% formalin; for pain behavior (flinching events) during phase I: 0-10 minutes; for pain behavior (flinching events) during phase II: 10-60 minutes
Description: 10^−2 M (100 nmol/10 μl) nSP and nHK-1, or saline (10 μl) was administered to intrathecally catheterized rats via catheters, and then 5 minutes later, 50 μl of 2% formalin was administered subeutaneously to the hind paws of rats. The number of flinching events (pain behavior) was determined for a 60-minute period after formalin administration, so that the degree of pain was evaluated. During the 10-minute period after formalin administration (referred to as phase I), pain behavior was determined once every 2 minutes (1 minute per determination). During the period from 10 minutes to 60 minutes after formalin administration (referred to as phase 11), pain behavior was determined once every 5 minutes (1 minute per determination), so that the degree of pain was evaluated. During phase I, behavior (phasic pain) resulting from chemical stimulation accompanying formalin administration was observed. During phase II, […] following the phasic pain was observed.
The horizontal axis indicates time (minutes) after formalin administration and the vertical axis indicates the determined number of pain behavior events per minute.
4.5 mM (45 pmol/10 μl) GPR83 siRNA, 4.5 mM (45 pmol/10 μl) NK1R siRNA as target groups, 4.5 mM (45 pmol/10 μl) mismatch siRNA (MM siRNA: negative control), and 10 μl of HVJ-E (reagent for introduction of siRNA) were administered to intrathecally catheterized rats via catheters. On day 4 after administration, 50 μl of 2% formalin was administered subcutaneously to the hind paws of rats. The number of flinching events (pain behavior) was determined for a 60-minute period after formalin administration, so that the degree of pain was evaluated. During the 10-minute period after formalin administration (referred to as phase I), pain behavior was determined once every 2 minutes (1 minute per determination). During the period from 10 minutes to 60 minutes after formalin administration (referred to as phase II), pain behavior was determined once every 5 minutes (1 minute per determination), so that the degree of pain was evaluated. During phase I, behavior (phasic pain) resulting from chemical stimulation accompanying formalin administration was observed. During phase II, tonic pain following the phasic pain was observed.

[3] = test system: SP-induced scratching behavior; experiment: SP-induced scratching behavior after intrathecal pre-administration of peptide or siRNA; format: in vivo, rat
Description: In addition, the number of scratching events induced by SP administration at 5 minutes after saline administration was designated as a control, and was specifically designated as 100%.
In addition, the number of scratching events induced by SP administration at 5 minutes after saline administration was designated as a control and was specifically designated as 100%.
10^−3 M (10 nmol/10 μl) N-terminal regions (nSP and nHK-1) and the following peptides subjected to substitution were administered to intrathecally catheterized rats via catheters.
5 minutes after administration, the number of scratching events induced by administration of 10^−3 M (10 nmol/10 μl) SP was evaluated. In addition, the number of scratching events induced by administration of 10^−3 M SP at 5 minutes after saline administration was designated as a control and was specifically designated as 100%.
10^−3 M (10 nmol/10 μl) DTrp^2-nSP and DTrp^2-nHK-1 were administered to intrathecally catheterized rats via catheters, and then the number of scratching events induced by administration of 10^−3 M (10 nmol/10 μl) SP was evaluated. […] In addition, the number of scratching events induced by SP administration at 5 minutes after saline administration was designated as a control and was specifically designated as 100%.
siRNA was prepared using an HVJ Envelop Vector Kit (ISHIHARA SANGYO KAISHA, LTD) according to the protocols of the kit. 10 μl of an siRNA solution was administered to intrathecally catheterized rats via catheters. With administration of only HVJ-E and administration of mismatch siRNA as controls, time-course changes in scratching events resulting from SP or HK-1 were evaluated.
Next, NK1R siRNA was intrathecally administered and then SP was intrathecally administered on days 4, 7, 10, and 14. […] The number of SP-induced scratching events was gradually recovered after siRNA administration.

[4] = test system: SP-induced scratching behavior; experiment: as above; format: in vivo, rat; conditions: 5 minutes before SP
[5] = test system: intrathecally catheterized rats; experiment: Scratching behavior after intrathecal administration of the peptide alone; format: in vivo, rat; conditions: 10^−3 M (10 nmol/10 μl) intrathecal
Description: 10^−3 M (10 nmol/10 μl) HK-1 and SP, the N-terminal regions (nHK-1 and nSP), and the C-terminal regions (cHK-1 and cSP) were administered to intrathecally catheterized rats via catheters. Ethological changes beginning immediately after administration were evaluated using the number of scratching events during a 5-minute period after each peptide administration as an indicator. Here, the expression “10^−3 M (10 nmol/10 μl) . . . administered” refers to administration of 10 μl (full dose) of a solution containing 10 nmol of a peptide (e.g., nHK-1) (that is, a 10^−3 M solution). The same applies to the following similar expressions. […] In these graphs, the number of scratching events induced by administration of 10^−3 M (10 nmol/10 μl) SP or HK-1 alone is designated as a control, and is specifically designated as 100%.

5-HT-induced itching = experiment: Serotonin (5-HT)-induced itching behavior; format: in vivo, rat; conditions: for itching behavior resulting from 5-HT administration (scratching events, 20 minutes): 10^−2 M (100 nmol/10 μl) peptide intrathecal immediately before s.c. 5-HT, vs saline
Description: (§1) Immediately after intrathecal administration of 10^−2 M (100 nmol/10 μl) DTrp^2-nSP, DTrp^2-nHK-1, or saline (10 μl) to intrathecally catheterized rats via catheters, an itching inducer (10^−3 M histamine (0.25 mg/50 μl) or 1.13×10^−4 M 5-HT (0.25 mg/50 μl)) was subcutaneously administered to the nape of the neck, and then itching behavior was determined for 20 minutes, thereby evaluating the degree of itching.
(§2) FIG. 8 and FIG. 9 show itching behavior resulting from administration of histamine and 5-HT. The vertical axis indicates the determined number of scratching events for a 20-minute period after histamine and 5-HT administration. The horizontal axis indicates DTrp^2-nSP, DTrp^2-nHK-1, and saline administered.
(§3) 4.5 mM (45 pmol/10 μl) GPR83 siRNA, 4.5 mM (45 pmol/10 μl) NK1R siRNA as target groups, and 10 μl of HVJ-E (reagent for introduction of siRNA) were administered to intrathecally catheterized rats via catheters. On day 4 after administration, itching inducers (10^−3 M histamine (0.25 mg/50 μl) and 1.13×10^−4 M 5-HT (0.25 mg/50 μl)) were each subcutaneously administered to the nape of the neck, itching behavior was determined for a 20-minute period after administration, and thus the degree of itching was evaluated.
(§4) FIG. 15 and FIG. 16 show the results of observing itching behavior resulting from histamine administration and 5-HT administration. The vertical axis indicates the number of scratching events during a 20-minute period after administration of histamine and 5-HT, and the horizontal axis indicates HVJ-E (reagent for introduction of siRNA), GPR83 siRNA, and NK1R siRNA administered.

[6] = test system: histamine-induced itching; experiment: Histamine-induced itching behavior; format: in vivo, rat; conditions: for itching behavior resulting from histamine administration (scratching events, 20 minutes): 10^−2 M (100 nmol/10 μl) peptide intrathecal immediately before s.c. histamine, vs saline
Description: as §1, §2, §3, §4

[7] = 10^−3 M (10 nmol/10 μl) peptide intrathecal, administration interval 5 minutes before 10^−3 M SP
[8] = 10^−3 M peptide intrathecal, administration interval 10 minutes
[9] = 10^−3 M peptide intrathecal, administration interval 15 minutes
[10] = assumed in view of Examples 1 to 5, not tested
[11] = 10^−3 M peptide intrathecal, administration interval 20 minutes
[12] = 10^−3 M peptide intrathecal, administration interval 30 minutes

Q: Which “suppression of pain-related behavior resulting from SP” value (pain-related behavior) does the source give for “Arg-Pro-Lys-Pro-Gln-Gln-Phe-NH2 (RPKPQQF-NH2) [SP(1-7)]” here?
A: can be suppressed; also recorded: suppress pain-related behavior resulting from SP

Q: What does the source list for “Arg-Pro-Lys-Pro-Gln-Gln-Phe-Phe-Gly-Leu-Met-NH2 (RPKPQQFFGLM-NH2; listed as Homo sapiens) [SP]”?
A: induction of thermal hyperalgesia (thermal hyperalgesia): induces thermal hyperalgesia; induction of pain-related behavior (e.g., scratching behavior) (pain-related behavior): induces pain-related behavior; induction of scratching behavior by intrathecal administration [1]: induces scratching behavior

Q: For “Arg-Pro-Lys-Pro-Gln-Gln-Phe-Phe-NH2 (RPKPQQFF-NH2) [SP(1-8)]”, which “suppression of pain-related behavior resulting from SP” value (pain-related behavior) is on record?
A: suppress pain-related behavior resulting from SP

Q: Which “pain behavior (flinching events) during phase I” value [2] does the source give for “Arg-Pro-Lys-Pro-Gln-NH2 (RPKPQ-NH2) [nSP]” here?
A: pain behavior decreased significantly

Q: And the “pain behavior (flinching events) during phase II” value [2]?
A: pain behavior decreased significantly

Q: What about the “suppression of the number of SP-induced scratching events” value [3, 7] of the same substance?
A: significantly suppress the number of scratching events; also recorded: an effect of suppressing the number of scratching events was exhibited significantly; also recorded: significant effects of suppressing SP-induced scratching behavior

Q: And the “suppression of the number of SP-induced scratching events” value [3, 8]?
A: suppression effect was exhibited to a significant degree

Q: And the “suppression of the number of SP-induced scratching events” value [3, 9]?
A: suppression effect disappeared

Q: And the “suppression of scratching behavior resulting from SP administration” value ([4]; 10^−4 M (1 nmol/10 μl) peptide intrathecal)?
A: suppressed scratching behavior resulting from SP administration

Q: What about the “suppression of scratching behavior resulting from SP administration” value ([4]; 10^−5 M (100 pmol/10 μl) peptide intrathecal) of the same substance?
A: suppressed scratching behavior resulting from SP administration

Q: And the “scratching behavior on administration of the peptide alone (number of scratching events during a 5-minute period)” value (“scratching behavior on administration” for short) [5]?
A: no scratching behavior

Q: For “Arg-Ser-Arg-Thr-Arg-NH2 (RSRTR-NH2) [nHK-1]”, which “suppression of 5-HT-induced itching (assumed)” value (5-HT-induced itching; [10]) is on record?
A: suppresses

Q: And the “pain behavior (flinching events) during phase I” value [2]?
A: pain behavior decreased significantly

Q: And the “pain behavior (flinching events) during phase II” value [2]?
A: pain behavior decreased significantly

Q: And the “suppression of the number of SP-induced scratching events” value [3, 7]?
A: significantly suppress the number of scratching events; also recorded: an effect of significantly suppressing scratching behavior; also recorded: significant effects of suppressing SP-induced scratching behavior

Q: And the “suppression of the number of SP-induced scratching events” value [3, 8]?
A: suppression effect was exhibited to a significant degree

Q: What about the “suppression of the number of SP-induced scratching events” value [3, 9] of the same substance?
A: suppression effect disappeared

Q: And the “scratching behavior on administration” value [5]?
A: no scratching behavior

Q: What about the “suppression of histamine-induced itching (assumed)” value [6, 10] of the same substance?
A: suppresses

Q: Which “scratching behavior on administration” value [5] does the source give for “Gln-Phe-Phe-Gly-Leu-Met-NH2 (QFFGLM-NH2) [cSP]” here?
A: resulted in scratching behavior

Q: Which “scratching behavior on administration” value [5] does the source give for “Gln-Phe-Tyr-Gly-Leu-Met-NH2 (QFYGLM-NH2) [cHK-1]” here?
A: resulted in scratching behavior

Q: With “Phe-Phe-Gly-Leu-Met-NH2 (FFGLM-NH2) [SP(7-11)]” as the substance, how does the “induction of pain-related behavior (e.g., scratching behavior)” value (pain-related behavior) read?
A: pain-related behavior is induced

Q: With R[dW]KPQ-NH2 [DTrp^2-nSP] as the substance, how does the “itching behavior resulting from 5-HT administration (scratching events, 20 minutes)” value (5-HT-induced itching) read?
A: no difference was found in the degree of itching behavior

Q: What about the “suppression of the number of SP-induced scratching events” value [3, 7] of the same substance?
A: significantly suppress the number of scratching events

Q: What about the “suppression of the number of SP-induced scratching events” value [3, 11] of the same substance?
A: suppression effect was significantly exhibited; also recorded: maintained significant suppression effects

Q: What about the “suppression of the number of SP-induced scratching events” value [3, 12] of the same substance?
A: suppression effect disappeared

Q: What about the “itching behavior resulting from histamine administration (scratching events, 20 minutes)” value [6] of the same substance?
A: no difference was found in itching behavior

Q: For R[dW]RTR-NH2 [DTrp^2-nHK-1], which “itching behavior resulting from 5-HT administration (scratching events, 20 minutes)” value (5-HT-induced itching) is on record?
A: significantly lowered the degree of itching behavior

Q: And the “suppression of the number of SP-induced scratching events” value [3, 7]?
A: significantly suppress the number of scratching events

Q: And the “suppression of the number of SP-induced scratching events” value [3, 11]?
A: suppression effect was significantly exhibited; also recorded: maintained significant suppression effects

Q: What about the “suppression of the number of SP-induced scratching events” value [3, 12] of the same substance?
A: suppression effect disappeared

Q: And the “itching behavior resulting from histamine administration (scratching events, 20 minutes)” value [6]?
A: significantly lowered itching events
